Reference: US4355101A, “Phenylmercaptoazole compounds” (Polaroid Corporation, priority 1981, dated 1982)
Where two headings read alike, the source gives them in different places.

Columns and labels:
[1] = pKa of substituents on the phenyl ring, measured for unblocked phenylmercaptotetrazole compounds; format: physicochemical; details: substituent on phenyl ring of unblocked phenylmercaptotetrazole
Excerpt: Table I lists the pKa of various substituents on the phenyl ring as measured for unblocked phenylmercaptotetrazole compounds.

[2] = Solubility product of the silver salt; format: physicochemical; details: for Effect of pH / ionization on solubility of the silver salt: pH 7 vs pH 13.5
[3] = Solubility of the silver salts in the presence of excess amounts of their anions; format: physicochemical; details: for Solubility of silver salt (total silver): 4×10^-3 molar in silver
Protocol: The solubilities of the silver salts of PMT and compound VIII in the presence of excess amounts of their anions were measured at pH 7.0 and 13.5. Each solution was 4×10^-3 molar in silver. The results are shown in Table III wherein the solubility data is expressed in μ moles/liter of total silver.

[4] = pH 7; Z.C.H. Tan, Photogr. Sci. Eng. 19, 17 (1975); cited from earlier work
[5] = Molar ratio Compound/Ag 1.25/1, pH 7.0
[6] = Molar ratio Compound/Ag 1.25/1, pH 13.5
[7] = Molar ratio Compound/Ag 1.75/1, pH 7.0
[8] = Molar ratio Compound/Ag 1.75/1, pH 13.5
[9] = Molar ratio Compound/Ag 2.13/1, pH 7.0
[10] = Molar ratio Compound/Ag 2.13/1, pH 13.5
[11] = Molar ratio Compound/Ag 2.5/1, pH 7.0
[12] = Molar ratio Compound/Ag 2.5/1, pH 13.5
[13] = Molar ratio Compound/Ag 4.5/1, pH 7.0
[14] = Molar ratio Compound/Ag 4.5/1, pH 13.5
[15] = Molar ratio Compound/Ag 7.5/1, pH 7.0
[16] = Molar ratio Compound/Ag 7.5/1, pH 13.5

## Cc1ccc(S(=O)(=O)Nc2ccc(-n3nnnc3S)cc2)cc1
[1]
  pKa: 8.8 ± 0.1

## CS(=O)(=O)Nc1ccc(-n2nnnc2S)cc1 [(p) NHSO2 CH3]
[1]
  pKa: 8.65 ± 0.1

## CC(=NO)c1ccc(-n2nnnc2S)cc1 [IX]
[2]; pH 7
  Ksp of silver salt: ~ 1 × 10^-16
[2]
  Effect of pH / ionization on solubility of the silver salt: increased the solubility of the silver salt of the compound VIII by an order of magnitude
[2]; pH 13.5
  Ksp of silver salt: 2 × 10^-15
[3]; [5]
  Solubility of silver salt (total silver): < 1 μ moles/liter
[3]; [6]
  Solubility of silver salt (total silver): 19 μ moles/liter
[3]; [7]
  Solubility of silver salt (total silver): < 1 μ moles/liter
[3]; [8]
  Solubility of silver salt (total silver): 44 μ moles/liter
[3]; [9]
  Solubility of silver salt (total silver): < 1 μ moles/liter
[3]; [10]
  Solubility of silver salt (total silver): 93 μ moles/liter
[3]; [11]
  Solubility of silver salt (total silver): 2 μ moles/liter
[3]; [12]
  Solubility of silver salt (total silver): 140 μ moles/liter
[3]; [13]
  Solubility of silver salt (total silver): 2 μ moles/liter
[3]; [14]
  Solubility of silver salt (total silver): 320 μ moles/liter
[3]; [15]
  Solubility of silver salt (total silver): 5 μ moles/liter
[3]; [16]
  Solubility of silver salt (total silver): 1400 μ moles/liter
[3]; high pH
  Silver solvent action: weak to moderate silver solvent
[3]; neutral solution
  Solubility of silver salt compared with PMT: even less soluble salt in neutral solution than does PMT

## NS(=O)(=O)c1ccc(-n2nnnc2S)cc1 [(p) SO2 NH2, 1-(4-sulfonamidophenyl)-5-mercaptotetrazole]
[1]
  pKa: 9.95 ± 0.1

## Oc1ccccc1-n1nnnc1S [(o) OH]
[1]
  pKa: 9.5 ± 0.1

## CNS(=O)(=O)c1ccc(-n2nnnc2S)cc1 [(p) SO2 NHCH3]
[1]
  pKa: 11.55 ± 0.1

## O=S(=O)(Nc1ccccc1)c1ccc(-n2nnnc2S)cc1
[1]
  pKa: 9.55 ± 0.1

## Oc1ccc(-n2nnnc2S)cc1 [(p) OH, 1-(4-hydroxyphenyl)-5-mercaptotetrazole]
[1]
  pKa: 10.1 ± 0.1

## Sc1nnnn1-c1ccccc1 [PMT, 1-phenyl-5-mercaptotetrazole]
[2]
  Effect of pH / ionization on solubility of the silver salt: relatively unaffected by pH
[2]; pH 13.5
  Ksp of silver salt: 4 × 10^-16
[4]
  Ksp of silver salt: ~3 × 10^-16
[3]; [5]
  Solubility of silver salt (total silver): < 1 μ moles/liter
[3]; [6]
  Solubility of silver salt (total silver): 1 μ moles/liter
[3]; [7]
  Solubility of silver salt (total silver): < 1 μ moles/liter
[3]; [8]
  Solubility of silver salt (total silver): 2 μ moles/liter
[3]; [9]
  Solubility of silver salt (total silver): 1 μ moles/liter
[3]; [10]
  Solubility of silver salt (total silver): 4 μ moles/liter
[3]; [11]
  Solubility of silver salt (total silver): 3 μ moles/liter
[3]; [12]
  Solubility of silver salt (total silver): 8 μ moles/liter
[3]; [13]
  Solubility of silver salt (total silver): 15 μ moles/liter
[3]; [14]
  Solubility of silver salt (total silver): 18 μ moles/liter
[3]; [15]
  Solubility of silver salt (total silver): 58 μ moles/liter
[3]; [16]
  Solubility of silver salt (total silver): 63 μ moles/liter

## CC(=NO)c1ccc(-n2nnnc2S)cc1 [drawing 14]
[1]
  pKa: 11.4
